One assay has as its target T1, P2X2 receptor H319K (Rattus norvegicus, UniProt P49653, H319K).
T1 construct: gene P2rx2; rat P2X2 H319K in HEK293 (Flp-In T-REx 293) cells
T1 sequence (P49653 1-472 H319K): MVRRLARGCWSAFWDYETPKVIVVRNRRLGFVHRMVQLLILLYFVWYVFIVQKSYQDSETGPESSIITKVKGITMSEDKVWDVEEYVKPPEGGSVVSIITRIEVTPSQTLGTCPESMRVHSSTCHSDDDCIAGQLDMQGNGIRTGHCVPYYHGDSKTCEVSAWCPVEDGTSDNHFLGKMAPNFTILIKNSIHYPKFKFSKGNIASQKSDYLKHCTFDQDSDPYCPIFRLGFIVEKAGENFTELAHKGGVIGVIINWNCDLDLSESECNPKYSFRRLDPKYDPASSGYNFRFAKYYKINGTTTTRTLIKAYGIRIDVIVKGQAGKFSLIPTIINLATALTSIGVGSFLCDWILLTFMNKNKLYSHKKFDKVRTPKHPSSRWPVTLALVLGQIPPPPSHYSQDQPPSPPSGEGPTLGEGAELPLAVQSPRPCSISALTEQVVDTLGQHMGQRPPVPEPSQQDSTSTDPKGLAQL
As to the kind of experiment: whole-cell and single-channel (cell-attached) patch-clamp, fast ATP jumps, global kinetic fit. Type of assay: cell-based.

A further assay deals with T2, P2X2 receptor (Rattus norvegicus, UniProt P49653).
T2 construct: gene P2rx2; wild type rat P2X2 in HEK293 (Flp-In T-REx 293) cells
T2 sequence (P49653 1-472): T1 sequence (P49653 1-472 H319K) with K319H
Described as above. Type of assay: cell-based.

Among the data in PMC7729398, “Unravelling the intricate cooperativity of subunit gating in P2X2 ion channels” (Scientific Reports, 2020) are EC50 values, retold here.

Substitutions are numbered along the chain they refer to.

By EC50 is commonly meant the concentration needed to bring the measured effect to its halfway point. Read a low EC50 as greater potency. Turning to `Nc1ncnc2c1ncn2[C@@H]1O[C@H](COP(=O)(O)OP(=O)(O)OP(=O)(O)O)[C@@H](O)[C@H]1O` [ATP], the EC50 was ~ 30 nM at P2X2 receptor H319K and 1.2 µM on P2X2 receptor.
